From the supplement of paper PMC13380429

What was measured:
U2OS [1] = test: relative viability EC50 (midpoint between 100% and the lowest measured viability); higher = less toxic; settings: 72 h
Caco-2 [2] = test: as above; settings: 72 h
Calu-3 [3] = test: as above; settings: 72 h
HepG2 [4] = test: as above; settings: 72 h
Vero E6 [5] = test: as above; settings: 72 h
A549-ACE2 [6] = test: drug-induced phospholipidosis relative to tamoxifen; higher = more phospholipidosis
[7] = system: A549-ACE2 infected with SARS-CoV-2; test: SARS-CoV-2 infection rate relative to DMSO; higher = more infection; settings: 24 h
U2OS [8] = test: cell viability relative to DMSO; higher = less toxic; settings: 72 h
Caco-2 [9] = test: as above; settings: 72 h
Calu-3 [10] = test: as above; settings: 72 h
HepG2 [11] = test: as above; settings: 72 h
Vero E6 [12] = test: as above; settings: 72 h
[13] = system: A549-ACE2 infected with SARS-CoV-2; test: cell count relative to DMSO; higher = less toxic; settings: 24 h
[14] = system: A549-ACE2 infected with SARS-CoV-2; test: morphology score (similarity to uninfected cells); higher = more like uninfected cells; settings: 24 h
A549-ACE2 [15] = test: phospholipidosis EC50; higher = less potent phospholipidosis inducer
U2OS [16] = test: drug sensitivity score (DSS) for viability; higher = more toxic; extreme values may be limits of the assay; settings: 72 h
Caco-2 [17] = test: as above; settings: 72 h
Calu-3 [18] = test: as above; settings: 72 h
HepG2 [19] = test: as above; settings: 72 h
Vero E6 [20] = test: as above; settings: 72 h

Cc1ccccc1-n1c(Cn2ncc3c(N)ncnc32)nc2cccc(C)c2c1=O [PIK-293]
Settings	drug sensitivity score	relative viability EC50 [µM]
Caco-2 [2]	–	> 10
Caco-2 [17]	0	–
Calu-3 [3]	–	> 10
Calu-3 [18]	0	–
HepG2 [4]	–	> 10
HepG2 [19]	0	–
U2OS [1]	–	> 10
U2OS [16]	0	–
Vero E6 [5]	–	> 10
Vero E6 [20]	0	–

drug-induced phospholipidosis [%], A549-ACE2 [6]
Settings	0.3 µM	0.833333 µM	3.33333 µM	6.66667 µM	10 µM
24 h	2.65	16.4	52.5	87.2	81
48 h	5.81	14	48.3	99.5	–
72 h	3.73	6.21	–	–	–

Settings	SARS-CoV-2 infection rate [%]	cell count [%]	cell viability [%]	morphology score	phospholipidosis EC50 [µM]
A549-ACE2 [15], 24 h	–	–	–	–	2.86
A549-ACE2 [15], 48 h	–	–	–	–	3.88
Caco-2 [9], 1 nM	–	–	101	–	–
Caco-2 [9], 10 nM	–	–	94.2	–	–
Caco-2 [9], 100 nM	–	–	91.1	–	–
Caco-2 [9], 1000 nM	–	–	95.8	–	–
Caco-2 [9], 10000 nM	–	–	89.9	–	–
Calu-3 [10], 1 nM	–	–	96.8	–	–
Calu-3 [10], 10 nM	–	–	90.5	–	–
Calu-3 [10], 100 nM	–	–	93	–	–
Calu-3 [10], 1000 nM	–	–	111	–	–
Calu-3 [10], 10000 nM	–	–	102	–	–
HepG2 [11], 1 nM	–	–	95.5	–	–
HepG2 [11], 10 nM	–	–	90	–	–
HepG2 [11], 100 nM	–	–	104	–	–
HepG2 [11], 1000 nM	–	–	95	–	–
HepG2 [11], 10000 nM	–	–	99.4	–	–
U2OS [8], 1 nM	–	–	91.4	–	–
U2OS [8], 10 nM	–	–	100	–	–
U2OS [8], 100 nM	–	–	93.6	–	–
U2OS [8], 1000 nM	–	–	100	–	–
U2OS [8], 10000 nM	–	–	95.5	–	–
Vero E6 [12], 1 nM	–	–	102	–	–
Vero E6 [12], 10 nM	–	–	99	–	–
Vero E6 [12], 100 nM	–	–	105	–	–
Vero E6 [12], 1000 nM	–	–	101	–	–
Vero E6 [12], 10000 nM	–	–	104	–	–
[7], 0.3 µM	89	–	–	–	–
[7], 3 µM	27	–	–	–	–
[7], 10 µM	70	–	–	–	–
[13], 0.3 µM	–	84	–	–	–
[13], 3 µM	–	98	–	–	–
[13], 10 µM	–	65	–	–	–
[14], 0.3 µM	–	–	–	0.21	–
[14], 3 µM	–	–	–	0.76	–
[14], 10 µM	–	–	–	0.02	–

c1cc(CN2CCCCC2)cc(OCCCNc2nc3ccccc3s2)c1 [zolantidine]
Settings	drug sensitivity score	relative viability EC50 [µM]
Caco-2 [2]	–	> 10
Caco-2 [17]	0.2	–
Calu-3 [3]	–	> 10
Calu-3 [18]	0.4	–
HepG2 [4]	–	> 10
HepG2 [19]	0	–
U2OS [1]	–	> 10
U2OS [16]	0	–
Vero E6 [5]	–	> 10
Vero E6 [20]	0	–

drug-induced phospholipidosis [%], A549-ACE2 [6]
Settings	0.3 µM	0.833333 µM	3.33333 µM	6.66667 µM	10 µM	30 µM
24 h	3.01	2.56	9.9	36.9	64.3	91.7
48 h	3.2	2.85	4.98	28.7	56.2	97.1
72 h	5.43	2.63	7.7	25.4	50.3	116

Settings	SARS-CoV-2 infection rate [%]	cell count [%]	cell viability [%]	morphology score	phospholipidosis EC50 [µM]
A549-ACE2 [15], 24 h	–	–	–	–	7.87
A549-ACE2 [15], 48 h	–	–	–	–	9.34
A549-ACE2 [15], 72 h	–	–	–	–	12.4
Caco-2 [9], 1 nM	–	–	104	–	–
Caco-2 [9], 10 nM	–	–	93.4	–	–
Caco-2 [9], 100 nM	–	–	99.7	–	–
Caco-2 [9], 1000 nM	–	–	96.6	–	–
Caco-2 [9], 10000 nM	–	–	86.4	–	–
Calu-3 [10], 1 nM	–	–	89.8	–	–
Calu-3 [10], 10 nM	–	–	88.3	–	–
Calu-3 [10], 100 nM	–	–	108	–	–
Calu-3 [10], 1000 nM	–	–	98.1	–	–
Calu-3 [10], 10000 nM	–	–	84.9	–	–
HepG2 [11], 1 nM	–	–	99.1	–	–
HepG2 [11], 10 nM	–	–	91.8	–	–
HepG2 [11], 100 nM	–	–	97.6	–	–
HepG2 [11], 1000 nM	–	–	102	–	–
HepG2 [11], 10000 nM	–	–	89.5	–	–
U2OS [8], 1 nM	–	–	101	–	–
U2OS [8], 10 nM	–	–	95.9	–	–
U2OS [8], 100 nM	–	–	104	–	–
U2OS [8], 1000 nM	–	–	97.6	–	–
U2OS [8], 10000 nM	–	–	94.6	–	–
Vero E6 [12], 1 nM	–	–	90.2	–	–
Vero E6 [12], 10 nM	–	–	103	–	–
Vero E6 [12], 100 nM	–	–	98.3	–	–
Vero E6 [12], 1000 nM	–	–	102	–	–
Vero E6 [12], 10000 nM	–	–	94.4	–	–
[7], 0.3 µM	98	–	–	–	–
[7], 3 µM	50	–	–	–	–
[7], 10 µM	20	–	–	–	–
[7], 30 µM	12	–	–	–	–
[13], 0.3 µM	–	101	–	–	–
[13], 3 µM	–	118	–	–	–
[13], 10 µM	–	119	–	–	–
[13], 30 µM	–	124	–	–	–
[14], 0.3 µM	–	–	–	-0.12	–
[14], 3 µM	–	–	–	0.76	–
[14], 10 µM	–	–	–	0.9	–
[14], 30 µM	–	–	–	0.62	–
